These results are taken from patent US9341627B2, “Protein structural biomarkers to guide targeted chemotherapies” (priority 2009, dated 2016).

The target of test [1] is T1, wildtype Eg5 kinesin motor domain (Homo sapiens, UniProt P52732).
T1 sequence (P52732 1-370): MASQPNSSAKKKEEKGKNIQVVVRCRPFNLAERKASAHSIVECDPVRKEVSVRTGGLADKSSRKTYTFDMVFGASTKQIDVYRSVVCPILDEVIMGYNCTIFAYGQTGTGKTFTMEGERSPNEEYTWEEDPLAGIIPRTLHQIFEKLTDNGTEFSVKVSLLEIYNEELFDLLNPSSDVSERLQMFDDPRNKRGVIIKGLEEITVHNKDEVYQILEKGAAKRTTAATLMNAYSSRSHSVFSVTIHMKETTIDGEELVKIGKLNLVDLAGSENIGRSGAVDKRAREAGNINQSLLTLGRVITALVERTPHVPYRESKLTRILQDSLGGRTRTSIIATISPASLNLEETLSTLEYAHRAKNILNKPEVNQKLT
Nature of the test: In vitro basal ATPase assay (coupled enzymatic), wildtype Eg5. The test is classed as biochemical. The note with it: 5 μM motor protein, 1 mM MgATP, 5-22.5 mM NaCl, read-out: IC50, basal ATP hydrolysis.
Experimental: (§1) Basal ATPase activities were measured with a coupled enzymatic assay as previously described (29) with 5 μM motor protein and 1 mM MgATP in a SpectraMax 2E spectrophotometer for high-throughput kinetic measurements as previously described (30). […] Reactions used for calculation of the IC50 values contained between 5 and 22.5 mM NaCl. Data were reproducible with protein samples purified from differing batches of cultured cells from two different laboratories.

Test [2] has as its system Eg5 E116, D130 and A133 mutants. The note with it: all E116, D130 and A133 mutants, to varying degrees.
Experimental: as §1

Usually IC50 stands for the concentration needed to halve the response being measured. For `CCOC(=O)C1=C(C)NC(=S)NC1c1cccc(O)c1` (centres unmarked) [monastrol], in test [1], the IC50 was determined as 8 µM. In the case of `N[C@@H](CSC(c1ccccc1)(c1ccccc1)c1ccccc1)C(=O)O` [STC, S-trityl-L-cysteine], the “sensitivity of mutants to inhibitor” value in test [2] is reported as “reduced sensitivity”.
